Test results reported in patent publication US20100056497A1, “AMIDE DERIVATIVE” (DAINIPPON SUMITOMO PHARMA CO., LTD, priority 2007, published 2010).
pIC50: −log10 of the molar value. Counter-ions that a name gives are not always drawn.

Experiments:
[1] = test system: plasma renin activity / blood pressure; settings: clinical test in patients with hypertension; cited from earlier work
Recombinant human renin = target: T1, Recombinant human renin (Homo sapiens, UniProt P00797); test: In vitro renin inhibitory activity assay (fluorescence, FRET peptide substrate); format: biochemical; settings: 37° C., one hour, substrate 4 μM, pH 7.4
T1 sequence (P00797 67-406): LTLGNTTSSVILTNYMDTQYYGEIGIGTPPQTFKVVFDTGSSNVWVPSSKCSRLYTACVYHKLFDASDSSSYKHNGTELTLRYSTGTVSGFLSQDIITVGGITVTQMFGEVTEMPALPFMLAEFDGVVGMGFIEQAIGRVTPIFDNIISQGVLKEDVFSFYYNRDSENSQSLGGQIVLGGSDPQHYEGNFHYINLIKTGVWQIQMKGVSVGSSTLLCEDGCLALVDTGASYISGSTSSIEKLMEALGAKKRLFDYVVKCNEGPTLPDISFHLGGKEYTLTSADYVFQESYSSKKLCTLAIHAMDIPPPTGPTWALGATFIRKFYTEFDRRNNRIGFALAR
Method: In Vitro Renin Inhibitory Activity Assay
Recombinant human renin (50 ng) was reacted in 0.1M BEPES buffer (pH 7.4) containing 0.1M NaCl, 1 mM EDTA and 0.1 mg/mL BSA together with a substrate and a test compound at 37° C. for one hour. As the substrate, Arg-Glu(EDANS)-Ile-His-Pro-Phe-His-Leu-Val-Ile-His-Thr-Lys(DABCYL)-Arg or DABCYL-γ-Abu-Ile-His-Pro-Phe-His-Leu-Val-Ile-His-Thr-EDANS was added in such an amount so that the final concentration thereof became 4 μM. The elevated fluorescence intensity at the exciting wavelength 340 nm and the fluorescence wavelength 500 nm was measured by a fluorescence plate reader. The concentration of a test compound to be needed to inhibit an enzyme activity in the presence of a test compound in plural concentrations by 50% was calculated as an IC50 value.
The amino acid sequence disclosed in Seq ID:1 is an amino acid sequence used in the renin inhibitory activity assay.
The amino acid sequence disclosed in Seq ID:2 is an amino acid sequence used in the renin inhibitory activity assay.

For COCCCOc1cc(C[C@@H](C[C@H](N)[C@@H](O)C[C@H](C(=O)NCC(C)(C)C(N)=O)C(C)C)C(C)C)ccc1OC [aliskiren], the hypotensive activity [1] is listed as “excellent hypotensive activity comparable to other RA system inhibitors” and the plasma renin activity [1] is listed as “significantly inhibits plasma renin activity”.
Work on COCCCOc1cc(C(=O)N(C(C)C)C2CNC[C@@H](COC(=O)NCCc3ccccc3)C2)ccc1OC (mixture of isomers) [Example 31, ((rac.)-(3S,5R)-5-{Isopropyl[4-methoxy-3-(3-methoxypropoxy)benzoyl]amino}-piperidin-3-yl)methyl(2-phenylethyl)carbamate hydrochloride] yielded a pIC50 (Recombinant human renin) of 6.62.
In the case of COCCCOc1cc(C(=O)N(C(C)C)[C@H]2CNCC[C@@H]2c2ccccc2)ccc1OC (racemic) [Example 45, N-Isopropyl-4-methoxy-3-(3-methoxypropoxy)-N-[(rac.)-(3R,4R)-4-phenylpiperidin-3-yl]benzamide hydrochloride], the pIC50 (Recombinant human renin) was 6.39.
COCCCOc1cc(C(=O)N(C(C)C)[C@@H]2CC[C@H](CCN(C(=O)Cc3ccccc3OC)C3CC3)NC2)ccc1OC [Example 73, N-[(3R,6R)-6-(2-{Cyclopropyl[(2-methoxyphenyl)acetyl]amino}ethyl)piperidin-3-yl]-N-isopropyl-4-methoxy-3-(3-methoxypropoxy)benzamide trifluoroacetate] gave a pIC50 (Recombinant human renin) of 8.34.
COCCCOc1cc(C(=O)N(C(C)C)[C@@H]2CCCNC2)c(Cl)cc1OC [Example 53, 2-Chloro-N-isopropyl-methoxy-5-(3-methoxypropoxy)-N-[(3R)-piperidin-3-yl]-benzamide hydrochloride] gave a pIC50 (Recombinant human renin) of 6.66.
Work on COCCCOc1cc(C(=O)N(C(C)C)[C@H]2CNC[C@@H](CNC(=O)OCc3ccccc3)C2)ccc1OC (racemic) [Example 43, Benzyl [((rac.)-(3S,5R)-5-{isopropyl[4-methoxy-3-(3-methoxypropoxy)benzoyl]-amino}piperidin-3-yl)methyl]carbamate hydrochloride] yielded a pIC50 (Recombinant human renin) of 6.11.
Work on COCCCOc1cc(C(=O)N(C(C)C)[C@@H]2CC[C@H](CCN(C(=O)Cc3ccccc3)C(C)C)NC2)ccc1OC (racemic) [Example 55, N-Isopropyl-N-((rac.)-(3R,6R)-6-{2-[isopropyl(phenylacetyl)amino]ethyl}piperidin-3-yl)-4-methoxy-3-(3-methoxypropoxy)benzamide hydrochloride] yielded a pIC50 (Recombinant human renin) of 6.16.
With COCCCOc1cc(C(=O)N(C(C)C)[C@@H]2CC[C@H](CC(=O)N(C(C)C)C3CCCCC3)NC2)ccc1OC (racemic) [Example 51, N-((rac.)-(3R,6R)-6-{2-[Cyclohexyl(isopropyl)amino]-2-oxoethyl}piperidin-3-yl)-N-isopropyl-4-methoxy-3-(3-methoxypropoxy)benzamide hydrochloride] the pIC50 (Recombinant human renin) was 6.30.
Compound COCCCOc1cc(C(=O)N(C(C)C)[C@H]2CNC[C@@H](COc3cccc(-c4ccccc4)c3)C2)ccc1OC (racemic) [Example 48, N-{(rac.)-(3R,5S)-5-[(Biphenyl-3-yloxy)methyl]piperidin-3-yl}-N-isopropyl-4-methoxy-3-(3-methoxypropoxy)benzamide hydrochloride] has a pIC50 (Recombinant human renin) of 6.21.
Work on COCCCOc1cc(C(=O)N(C(C)C)[C@@H]2CCCNC2)c(C)cc1OC [Example 27, N-Isopropyl-4-methoxy-5-(3-methoxypropoxy)-2-methyl-N-[(3R)-piperidin-3-yl]-benzamide] yielded a pIC50 (Recombinant human renin) of 6.72.
